Assay results as given in patent US9593122B2, “Substituted pyrazolylpyrazole derivative and use of same as herbicide” (KYOYU AGRI CO., LTD., priority 2013, dated 2017).

Legend:
Assay in all cases: Paddy herbicidal activity test
Assay type in all cases: in vivo
Scirpus juncoides = details: irrigated paddy pot, 30 days
Protocol: (§1) Rice paddy soil was filled into a 1/10000 are pot followed by the addition of suitable amounts of water and chemical fertilizer, kneading, seeding with Echinochloa crus-galli, Monochoria vaginalis and Scirpus juncoides and maintaining in an irrigated state at a water depth of 3 cm.
(§2) Wettable powder of Target Compound (I) shown in Table 1 prepared in compliance with the preparation examples were diluted with a suitable amount of water, rice plants in the 2.0 leaf stage were transplanted during 3.5 leaf stage of Echinochloa crus-galli, and treated by dropping in chemical in the prescribed amount per are using a pipette.
(§3) After treating for 30 days in a glass greenhouse at an average atmospheric temperature of 30° C., the herbicidal efficacy thereof was investigated.
(§4) Evaluation of herbicidal efficacy was carried out by comparing growth inhibition rate (%) with an untreated group, while evaluation of phytotoxicity was carried out by comparing growth inhibition rate (%) with the state of a complete eradication group, and were evaluated at 11 levels indicated below.

Echinochloa crus-galli = details: irrigated paddy pot, treated at 3.5 leaf stage of Echinochloa crus-galli, 30 days
Protocol: as §1, §2, §3, §4

Monochoria vaginalis = details: irrigated paddy pot, 30 days
Protocol: as §1, §2, §3, §4

CC(C)=CCNc1c(C#N)cnn1-c1nn2c(c1Cl)CCCC2 [Compound 13]
Scirpus juncoides herbicidal efficacy (growth inhibition level) (Scirpus juncoides; 1g a.i./10a): 8 (8: 80% to less than 90%)
Scirpus juncoides herbicidal efficacy (growth inhibition level) (Scirpus juncoides; 5g a.i./10a): 8 (8: 80% to less than 90%)
Echinochloa crus-galli herbicidal efficacy (growth inhibition level) (Echinochloa crus-galli; 1g a.i./10a): 9 (9: 90% to less than 100%)
Echinochloa crus-galli herbicidal efficacy (growth inhibition level) (Echinochloa crus-galli; 5g a.i./10a): 10 (10: 100%)
Monochoria vaginalis herbicidal efficacy (growth inhibition level) (Monochoria vaginalis; 1g a.i./10a): 8 (8: 80% to less than 90%)
Monochoria vaginalis herbicidal efficacy (growth inhibition level) (Monochoria vaginalis; 5g a.i./10a): 9 (9: 90% to less than 100%)

N#Cc1cnn(-c2nn3c(c2Br)CCCC3)c1N(C/C=C\Cl)C(=O)C(F)(F)F [Compound 53]
Scirpus juncoides herbicidal efficacy (growth inhibition level) (Scirpus juncoides; 1g a.i./10a): 7 (7: 70% to less than 80%)
Scirpus juncoides herbicidal efficacy (growth inhibition level) (Scirpus juncoides; 5g a.i./10a): 8 (8: 80% to less than 90%)
Echinochloa crus-galli herbicidal efficacy (growth inhibition level) (Echinochloa crus-galli; 1g a.i./10a): 9 (9: 90% to less than 100%)
Echinochloa crus-galli herbicidal efficacy (growth inhibition level) (Echinochloa crus-galli; 5g a.i./10a): 10 (10: 100%)
Monochoria vaginalis herbicidal efficacy (growth inhibition level) (Monochoria vaginalis; 1g a.i./10a): 7 (7: 70% to less than 80%)
Monochoria vaginalis herbicidal efficacy (growth inhibition level) (Monochoria vaginalis; 5g a.i./10a): 8 (8: 80% to less than 90%)

C=C(C)CN(C(=O)C(F)(F)F)c1c(C#N)cnn1-c1nn2c(c1Cl)CCCC2 [Compound 19]
Scirpus juncoides herbicidal efficacy (growth inhibition level) (Scirpus juncoides; 1g a.i./10a): 7 (7: 70% to less than 80%)
Scirpus juncoides herbicidal efficacy (growth inhibition level) (Scirpus juncoides; 5g a.i./10a): 8 (8: 80% to less than 90%)
Echinochloa crus-galli herbicidal efficacy (growth inhibition level) (Echinochloa crus-galli; 1g a.i./10a): 9 (9: 90% to less than 100%)
Echinochloa crus-galli herbicidal efficacy (growth inhibition level) (Echinochloa crus-galli; 5g a.i./10a): 10 (10: 100%)
Monochoria vaginalis herbicidal efficacy (growth inhibition level) (Monochoria vaginalis; 1g a.i./10a): 9 (9: 90% to less than 100%)
Monochoria vaginalis herbicidal efficacy (growth inhibition level) (Monochoria vaginalis; 5g a.i./10a): 9 (9: 90% to less than 100%)

CC(C)=CCN(C(=O)C(F)(F)F)c1c(C#N)cnn1-c1nn2c(c1Cl)CCCC2 [Compound 25]
Scirpus juncoides herbicidal efficacy (growth inhibition level) (Scirpus juncoides; 1g a.i./10a): 8 (8: 80% to less than 90%)
Scirpus juncoides herbicidal efficacy (growth inhibition level) (Scirpus juncoides; 5g a.i./10a): 8 (8: 80% to less than 90%)
Echinochloa crus-galli herbicidal efficacy (growth inhibition level) (Echinochloa crus-galli; 1g a.i./10a): 9 (9: 90% to less than 100%)
Echinochloa crus-galli herbicidal efficacy (growth inhibition level) (Echinochloa crus-galli; 5g a.i./10a): 10 (10: 100%)
Monochoria vaginalis herbicidal efficacy (growth inhibition level) (Monochoria vaginalis; 1g a.i./10a): 9 (9: 90% to less than 100%)
Monochoria vaginalis herbicidal efficacy (growth inhibition level) (Monochoria vaginalis; 5g a.i./10a): 9 (9: 90% to less than 100%)

CC=CCN(C(=O)C(F)(F)F)c1c([N+](=O)[O-])cnn1-c1nn2c(c1Cl)CCCC2 (mixture of isomers) [Compound 40]
Scirpus juncoides herbicidal efficacy (growth inhibition level) (Scirpus juncoides; 1g a.i./10a): 7 (7: 70% to less than 80%)
Scirpus juncoides herbicidal efficacy (growth inhibition level) (Scirpus juncoides; 5g a.i./10a): 8 (8: 80% to less than 90%)
Echinochloa crus-galli herbicidal efficacy (growth inhibition level) (Echinochloa crus-galli; 1g a.i./10a): 8 (8: 80% to less than 90%)
Echinochloa crus-galli herbicidal efficacy (growth inhibition level) (Echinochloa crus-galli; 5g a.i./10a): 9 (9: 90% to less than 100%)
Monochoria vaginalis herbicidal efficacy (growth inhibition level) (Monochoria vaginalis; 1g a.i./10a): 8 (8: 80% to less than 90%)
Monochoria vaginalis herbicidal efficacy (growth inhibition level) (Monochoria vaginalis; 5g a.i./10a): 8 (8: 80% to less than 90%)

C=C(Cl)CN(C(=O)C(F)(F)F)c1c(C#N)cnn1-c1nn2c(c1Br)CCCC2 [Compound 51]
Scirpus juncoides herbicidal efficacy (growth inhibition level) (Scirpus juncoides; 1g a.i./10a): 8 (8: 80% to less than 90%)
Scirpus juncoides herbicidal efficacy (growth inhibition level) (Scirpus juncoides; 5g a.i./10a): 8 (8: 80% to less than 90%)
Echinochloa crus-galli herbicidal efficacy (growth inhibition level) (Echinochloa crus-galli; 1g a.i./10a): 9 (9: 90% to less than 100%)
Echinochloa crus-galli herbicidal efficacy (growth inhibition level) (Echinochloa crus-galli; 5g a.i./10a): 9 (9: 90% to less than 100%)
Monochoria vaginalis herbicidal efficacy (growth inhibition level) (Monochoria vaginalis; 1g a.i./10a): 8 (8: 80% to less than 90%)
Monochoria vaginalis herbicidal efficacy (growth inhibition level) (Monochoria vaginalis; 5g a.i./10a): 8 (8: 80% to less than 90%)

C=CCCN(C(=O)C(F)(F)F)c1c(C#N)cnn1-c1nn2c(c1Br)CCCC2 [Compound 50]
Scirpus juncoides herbicidal efficacy (growth inhibition level) (Scirpus juncoides; 1g a.i./10a): 7 (7: 70% to less than 80%)
Scirpus juncoides herbicidal efficacy (growth inhibition level) (Scirpus juncoides; 5g a.i./10a): 8 (8: 80% to less than 90%)
Echinochloa crus-galli herbicidal efficacy (growth inhibition level) (Echinochloa crus-galli; 1g a.i./10a): 9 (9: 90% to less than 100%)
Echinochloa crus-galli herbicidal efficacy (growth inhibition level) (Echinochloa crus-galli; 5g a.i./10a): 10 (10: 100%)
Monochoria vaginalis herbicidal efficacy (growth inhibition level) (Monochoria vaginalis; 1g a.i./10a): 7 (7: 70% to less than 80%)
Monochoria vaginalis herbicidal efficacy (growth inhibition level) (Monochoria vaginalis; 5g a.i./10a): 9 (9: 90% to less than 100%)

C=CCN(C(=O)C(F)(F)F)c1c(C#N)cnn1-c1nn2c(c1Br)CCCC2 [Compound 49]
Scirpus juncoides herbicidal efficacy (growth inhibition level) (Scirpus juncoides; 1g a.i./10a): 8 (8: 80% to less than 90%)
Scirpus juncoides herbicidal efficacy (growth inhibition level) (Scirpus juncoides; 5g a.i./10a): 9 (9: 90% to less than 100%)
Echinochloa crus-galli herbicidal efficacy (growth inhibition level) (Echinochloa crus-galli; 1g a.i./10a): 8 (8: 80% to less than 90%)
Echinochloa crus-galli herbicidal efficacy (growth inhibition level) (Echinochloa crus-galli; 5g a.i./10a): 9 (9: 90% to less than 100%)
Monochoria vaginalis herbicidal efficacy (growth inhibition level) (Monochoria vaginalis; 1g a.i./10a): 7 (7: 70% to less than 80%)
Monochoria vaginalis herbicidal efficacy (growth inhibition level) (Monochoria vaginalis; 5g a.i./10a): 9 (9: 90% to less than 100%)

C=CCCN(C(=O)C(F)(F)F)c1c(C#N)cnn1-c1nn2c(c1Cl)CCCC2 [Compound 18]
Scirpus juncoides herbicidal efficacy (growth inhibition level) (Scirpus juncoides; 1g a.i./10a): 7 (7: 70% to less than 80%)
Scirpus juncoides herbicidal efficacy (growth inhibition level) (Scirpus juncoides; 5g a.i./10a): 8 (8: 80% to less than 90%)
Echinochloa crus-galli herbicidal efficacy (growth inhibition level) (Echinochloa crus-galli; 1g a.i./10a): 9 (9: 90% to less than 100%)
Echinochloa crus-galli herbicidal efficacy (growth inhibition level) (Echinochloa crus-galli; 5g a.i./10a): 9 (9: 90% to less than 100%)
Monochoria vaginalis herbicidal efficacy (growth inhibition level) (Monochoria vaginalis; 1g a.i./10a): 8 (8: 80% to less than 90%)
Monochoria vaginalis herbicidal efficacy (growth inhibition level) (Monochoria vaginalis; 5g a.i./10a): 9 (9: 90% to less than 100%)

C=CCN(C(=O)C(F)(F)F)c1c(C#N)cnn1-c1nn2c(c1Cl)CCCC2 [Compound 17]
Scirpus juncoides herbicidal efficacy (growth inhibition level) (Scirpus juncoides; 1g a.i./10a): 9 (9: 90% to less than 100%)
Scirpus juncoides herbicidal efficacy (growth inhibition level) (Scirpus juncoides; 5g a.i./10a): 9 (9: 90% to less than 100%)
Echinochloa crus-galli herbicidal efficacy (growth inhibition level) (Echinochloa crus-galli; 1g a.i./10a): 9 (9: 90% to less than 100%)
Echinochloa crus-galli herbicidal efficacy (growth inhibition level) (Echinochloa crus-galli; 5g a.i./10a): 10 (10: 100%)
Monochoria vaginalis herbicidal efficacy (growth inhibition level) (Monochoria vaginalis; 1g a.i./10a): 8 (8: 80% to less than 90%)
Monochoria vaginalis herbicidal efficacy (growth inhibition level) (Monochoria vaginalis; 5g a.i./10a): 8 (8: 80% to less than 90%)

CC(C)=CCNc1c(C#N)cnn1-c1nn2c(c1Br)CCCC2 [Compound 48]
Scirpus juncoides herbicidal efficacy (growth inhibition level) (Scirpus juncoides; 1g a.i./10a): 7 (7: 70% to less than 80%)
Scirpus juncoides herbicidal efficacy (growth inhibition level) (Scirpus juncoides; 5g a.i./10a): 8 (8: 80% to less than 90%)
Echinochloa crus-galli herbicidal efficacy (growth inhibition level) (Echinochloa crus-galli; 1g a.i./10a): 8 (8: 80% to less than 90%)
Echinochloa crus-galli herbicidal efficacy (growth inhibition level) (Echinochloa crus-galli; 5g a.i./10a): 9 (9: 90% to less than 100%)
Monochoria vaginalis herbicidal efficacy (growth inhibition level) (Monochoria vaginalis; 1g a.i./10a): 8 (8: 80% to less than 90%)
Monochoria vaginalis herbicidal efficacy (growth inhibition level) (Monochoria vaginalis; 5g a.i./10a): 10 (10: 100%)

N#Cc1cnn(-c2nn3c(c2Cl)CCCC3)c1NCCC(F)=C(F)F [Compound 6]
Scirpus juncoides herbicidal efficacy (growth inhibition level) (Scirpus juncoides; 1g a.i./10a): 8 (8: 80% to less than 90%)
Scirpus juncoides herbicidal efficacy (growth inhibition level) (Scirpus juncoides; 5g a.i./10a): 8 (8: 80% to less than 90%)
Echinochloa crus-galli herbicidal efficacy (growth inhibition level) (Echinochloa crus-galli; 1g a.i./10a): 9 (9: 90% to less than 100%)
Echinochloa crus-galli herbicidal efficacy (growth inhibition level) (Echinochloa crus-galli; 5g a.i./10a): 9 (9: 90% to less than 100%)
Monochoria vaginalis herbicidal efficacy (growth inhibition level) (Monochoria vaginalis; 1g a.i./10a): 7 (7: 70% to less than 80%)
Monochoria vaginalis herbicidal efficacy (growth inhibition level) (Monochoria vaginalis; 5g a.i./10a): 8 (8: 80% to less than 90%)
